# Data published in ChEMBL document CHEMBL5365460, “Structural Mechanism and Inhibitors Targeting EGFR Exon 20 Insertion (Ex20ins) Mutations” (J Med Chem, 2023).
# Tests used:
# [1] = tested on: BaF3; test: Antiproliferative activity against mouse BaF3 cells harboring wild type EGFR; format: functional, cell-based
# [2] = Antiproliferative activity against mouse Ba/F3 EGFR-D770-N771ins_SVD cells; format: functional, cell-based
# [3] = Selectivity index, ratio of IC50 for antiproliferative activity against mouse BaF3 cells harboring wild type EGFR to IC50 for antiproliferative activity against mouse Ba/F3 EGFR-V769_D770insASV cells; format: functional
# [4] = Antiproliferative activity against mouse Ba/F3 EGFR-V769_D770insASV cells; format: functional, cell-based
# [5] = tested on: BaF3; test: Antiproliferative activity against mouse BaF3 cells harboring wild type EGFR incubated for 3 days by Cell Titer-Glo assay; format: functional, cell-based; conditions: BaF3, 72 h
# [6] = Antiproliferative activity against mouse Ba/F3 EGFR-A763_Y764insFQEA cells incubated for 3 days by Cell Titer-Glo assay; format: functional, cell-based; conditions: 72 h
# [7] = Antiproliferative activity against mouse Ba/F3 EGFR-V769_D770insASV cells incubated for 3 days by Cell Titer-Glo assay; format: functional, cell-based; conditions: 72 h
# [8] = Antiproliferative activity against mouse Ba/F3 EGFR-D770-N771ins_SVD cells incubated for 3 days by Cell Titer-Glo assay; format: functional, cell-based; conditions: 72 h
# [9] = Antiproliferative activity against mouse Ba/F3 EGFR-H773-V774ins_NPH cells incubated for 3 days by Cell Titer-Glo assay; format: functional, cell-based; conditions: 72 h
# [10] = tested on: NIH3T3; test: Antiproliferative activity against mouse NIH/3T3 cells harboring wild type EGFR incubated for 72 hrs by Cell Titer-Glo assay; format: functional, cell-based; conditions: NIH3T3, 72 h
# [11] = tested on: NIH3T3; test: Antiproliferative activity against mouse NIH/3T3 cells harboring EGFR-A763_Y764insFQEA incubated for 72 hrs by Cell Titer-Glo assay; format: functional, cell-based; conditions: NIH3T3, 72 h
# [12] = tested on: NIH3T3; test: Antiproliferative activity against mouse NIH/3T3 cells harboring EGFR-V769_D770insASV incubated for 72 hrs by Cell Titer-Glo assay; format: functional, cell-based; conditions: NIH3T3, 72 h
# [13] = tested on: NIH3T3; test: Antiproliferative activity against mouse NIH/3T3 cells harboring EGFR-D770-N771ins_SVD incubated for 72 hrs by Cell Titer-Glo assay; format: functional, cell-based; conditions: NIH3T3, 72 h
# [14] = tested on: NIH3T3; test: Antiproliferative activity against mouse NIH/3T3 cells harboring EGFR-H773-V774ins_NPH incubated for 72 hrs by Cell Titer-Glo assay; format: functional, cell-based; conditions: NIH3T3, 72 h
# [15] = tested on: BaF3; test: Antiproliferative activity against mouse Ba/F3 cells harboring EGFR-D770-N771ins_G mutant incubated for 3 days by Cell Titer-Glo assay; format: functional, cell-based; conditions: BaF3, 72 h
# [16] = tested on: BaF3; test: Antiproliferative activity against mouse Ba/F3 cells harboring EGFR-H773-V774ins_PH mutant incubated for 3 days by Cell Titer-Glo assay; format: functional, cell-based; conditions: BaF3, 72 h
# [17] = target: Epidermal growth factor receptor (Homo sapiens, UniProt P00533); test: Inhibition of wildtype EGFR (unknown origin) phosphorylation
# Chain of Epidermal growth factor receptor (Homo sapiens, UniProt P00533) (P00533 whole entry): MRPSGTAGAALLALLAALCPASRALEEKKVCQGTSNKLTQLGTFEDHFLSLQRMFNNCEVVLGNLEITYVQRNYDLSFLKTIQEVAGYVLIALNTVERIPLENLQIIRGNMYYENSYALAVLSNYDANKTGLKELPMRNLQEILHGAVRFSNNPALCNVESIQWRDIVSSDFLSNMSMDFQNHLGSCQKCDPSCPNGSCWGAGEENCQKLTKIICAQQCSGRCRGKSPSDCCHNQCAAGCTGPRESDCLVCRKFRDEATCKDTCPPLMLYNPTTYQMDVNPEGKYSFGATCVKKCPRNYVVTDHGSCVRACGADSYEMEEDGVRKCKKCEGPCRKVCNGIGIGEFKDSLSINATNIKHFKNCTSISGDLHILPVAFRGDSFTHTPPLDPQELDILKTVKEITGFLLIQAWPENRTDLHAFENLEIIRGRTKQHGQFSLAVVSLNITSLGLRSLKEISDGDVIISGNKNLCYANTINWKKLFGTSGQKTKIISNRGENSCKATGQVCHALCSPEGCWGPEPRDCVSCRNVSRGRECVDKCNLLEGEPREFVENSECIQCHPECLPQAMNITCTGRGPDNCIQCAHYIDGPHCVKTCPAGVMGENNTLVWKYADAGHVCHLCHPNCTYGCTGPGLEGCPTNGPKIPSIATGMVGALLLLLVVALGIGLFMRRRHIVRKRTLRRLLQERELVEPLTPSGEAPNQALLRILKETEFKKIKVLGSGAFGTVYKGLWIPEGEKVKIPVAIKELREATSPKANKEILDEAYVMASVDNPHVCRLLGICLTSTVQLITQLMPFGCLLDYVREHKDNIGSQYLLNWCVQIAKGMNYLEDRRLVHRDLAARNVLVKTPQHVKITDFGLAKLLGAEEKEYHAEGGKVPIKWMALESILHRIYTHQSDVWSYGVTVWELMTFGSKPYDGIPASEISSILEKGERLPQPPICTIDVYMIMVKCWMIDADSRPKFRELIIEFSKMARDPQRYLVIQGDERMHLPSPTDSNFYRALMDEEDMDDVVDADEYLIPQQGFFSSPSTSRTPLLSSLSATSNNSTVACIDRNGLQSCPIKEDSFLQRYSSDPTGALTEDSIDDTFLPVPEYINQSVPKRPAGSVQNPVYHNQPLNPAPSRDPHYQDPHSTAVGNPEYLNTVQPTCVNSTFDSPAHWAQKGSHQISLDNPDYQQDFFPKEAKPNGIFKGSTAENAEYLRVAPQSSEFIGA
# [18] = target: Epidermal growth factor receptor (Homo sapiens, UniProt P00533, D770-N771INSNPG); test: Inhibition of EGFR-D770-N771insNPG mutant (unknown origin) phosphorylation
# Chain of Epidermal growth factor receptor (Homo sapiens, UniProt P00533, D770-N771INSNPG) (P00533 whole entry, looked up, stated change not applied): as the sequence (P00533 whole entry) above
# [19] = Antiproliferative activity against mouse Ba/F3 EGFR-A763_Y764insFQEA cells incubated for 72 hrs by CCK-8 assay; format: functional, cell-based
# [20] = Antiproliferative activity against mouse Ba/F3 EGFR-V769_D770insASV cells incubated for 72 hrs by CCK-8 assay; format: functional, cell-based
# [21] = Antiproliferative activity against mouse Ba/F3 EGFR-D770-N771ins_SVD cells incubated for 72 hrs by CCK-8 assay; format: functional, cell-based
# [22] = Antiproliferative activity against mouse Ba/F3 EGFR-H773-V774ins_NPH cells incubated for 72 hrs by CCK-8 assay; format: functional, cell-based
# [23] = Antiproliferative activity against human CUTO14 cells harboring EGFR V769_D770insASV mutant incubated for 72 hrs by MTS assay; format: functional, cell-based; conditions: CUTO14, 72 h
# [24] = tested on: BaF3; test: Antiproliferative activity against mouse BaF3 cells harboring EGFR-D770-N771insNPG mutant incubated for 3 days by Cell Titer-Glo assay; format: functional, cell-based; conditions: BaF3, 72 h
# [25] = Selectivity index, ratio of IC50 for antiproliferative activity against mouse BaF3 cells harboring wild type EGFR to IC50 for antiproliferative activity against mouse Ba/F3 EGFR-A763_Y764insFQEA cells; format: functional
# [26] = Selectivity index, ratio of IC50 for antiproliferative activity against mouse BaF3 cells harboring wild type EGFR to IC50 for antiproliferative activity against mouse Ba/F3 EGFR-D770-N771ins_SVD cells; format: functional
# [27] = Selectivity index, ratio of IC50 for antiproliferative activity against mouse BaF3 cells harboring wild type EGFR to IC50 for antiproliferative activity against mouse BaF3 cells harboring EGFR-D770-N771insNPG mutant; format: functional
# [28] = Selectivity index, ratio of IC50 for antiproliferative activity against mouse BaF3 cells harboring wild type EGFR to IC50 for antiproliferative activity against mouse Ba/F3 EGFR-H773-V774ins_NPH cells; format: functional
# [29] = Metabolic stability in human hepatocytes assessed as intrinsic clearance measured per 10^6 cells at 100 uM measured upto 100 mins by LC-MS/MS analysis; format: ADME, cell-based, Hepatocyte; conditions: read-out: CLH
# [30] = tested on: BaF3; test: Antiproliferative activity against mouse BaF3 cells harboring wild type EGFR incubated for 48 hrs by Cell Titer-Glo assay; format: functional, cell-based; conditions: BaF3, 48 h
# [31] = Antiproliferative activity against mouse Ba/F3 EGFR-V769_D770insASV cells incubated for 48 hrs by Cell Titer-Glo assay; format: functional, cell-based
# [32] = Antiproliferative activity against mouse Ba/F3 EGFR-D770-N771ins_SVD cells incubated for 48 hrs by Cell Titer-Glo assay; format: functional, cell-based
# [33] = tested on: BaF3; test: Antiproliferative activity against mouse BaF3 cells harboring EGFR-D770-N771insNPG mutant incubated for 48 hrs by Cell Titer-Glo assay; format: functional, cell-based; conditions: BaF3, 48 h
# [34] = Antiproliferative activity against mouse Ba/F3 EGFR-H773-V774ins_NPH cells; format: functional, cell-based
# [35] = Antiproliferative activity against mouse Ba/F3 EGFR-A763_Y764insFQEA cells; format: functional, cell-based
# [36] = tested on: BaF3; test: Antiproliferative activity against mouse BaF3 cells harboring EGFR exon 20 insertion mutant incubated for 72 hrs by Cell Titer-Glo assay; format: functional, cell-based; conditions: BaF3, 72 h
# [37] = tested on: BaF3; test: Potency index, ratio of afatinib IC50 to test compound IC50 for antiproliferative activity against mouse BaF3 cells harboring EGFR exon 20 insertion mutant incubated for 72 hrs by Cell Titer-Glo assay; format: functional
# [38] = Antiproliferative activity against human CUTO14 cells harboring EGFR V769_D770insASV mutant incubated for 72 hrs by Cell Titer-Glo assay; format: functional, cell-based; conditions: CUTO14, 72 h
# [39] = Antiproliferative activity against human YUL-0019 cells harboring EGFR N771delinsFH mutant incubated for 72 hrs by Cell Titer-Glo assay; format: functional, cell-based; conditions: YUL-0019, 72 h
smiles,measurement,setting,value
C=CC(=O)Nc1cccc(N(C(=O)OCc2ccc(F)cc2)c2ccnc(Nc3cnn(C)c3)n2)c1,IC50,[1],7.6 nM
same,IC50,[2],15 nM
same,Ratio IC50,[3],0.22
same,IC50,[4],34 nM
C=CC(=O)N[C@H]1C=C(C)c2c(-c3cnc4ccccc4c3)c3c(N)ncnc3n2C1 [CLN-081],IC50,[5],676 nM
same,IC50,[6],5 nM
same,IC50,[7],5 nM
same,IC50,[8],5 nM
same,IC50,[9],5 nM
same,IC50,[10],368 nM
same,IC50,[11],< 4.48 nM
same,IC50,[12],78.2 nM
same,IC50,[13],23.4 nM
same,IC50,[14],66.7 nM
same,IC50,[15],5 nM
same,IC50,[16],5 nM
same,IC50,[17],8 nM
same,IC50,[18],7.4 nM
C=CC(=O)Nc1cc2c(Nc3ccc(OCc4ccccn4)c(Cl)c3)ncnc2cc1OCCN1CCOCC1 [TUXOBERTINIB],IC50,[1],~1000 nM
same,IC50,[2],< 100 nM
CN(C)C/C=C/C(=O)Nc1cc2c(Nc3ccc(Cl)c(Br)c3)ncnc2cn1 [TH-4000E],IC50,[19],< 0.5 nM
same,IC50,[20],7.6 nM
same,IC50,[21],7.3 nM
same,IC50,[22],9.9 nM
same,IC50,[23],72 nM
C=CC(=O)Nc1cc(Nc2ncc(C(=O)OC(C)C)c(-c3cn(C)c4ccccc34)n2)c(OC)cc1N(C)CCN(C)C [MOBOCERTINIB],IC50,[5],34.5 nM
same,IC50,[6],11.8 nM
same,IC50,[7],10.9 nM
same,IC50,[8],22.5 nM
same,IC50,[24],4.3 nM
same,IC50,[9],18.1 nM
same,Ratio IC50,[3],3.17
same,Ratio IC50,[25],1.5
same,Ratio IC50,[26],1.5
same,Ratio IC50,[27],1.5
same,Ratio IC50,[28],1.5
CN(C)C/C=C/C(=O)Nc1cc2c(Nc3ccc(F)c(Cl)c3)ncnc2cc1O[C@H]1CCOC1 [AFATINIB],IC50,[5],3.8 nM
same,IC50,[6],2.7 nM
same,IC50,[7],46 nM
same,IC50,[8],163 nM
same,IC50,[24],40 nM
same,IC50,[9],102 nM
same,Ratio IC50,[3],0.08
C=CC(=O)Nc1cc(Nc2nccc(Nc3cc(Cl)c(F)cc3C(C)(C)O)n2)c(OC)cc1N1CC[C@@H](N(C)C)C1 [SUNVOZERTINIB],IC50,[5],12.7 nM
same,IC50,[7],22.1 nM
same,IC50,[9],29.6 nM
same,Ratio IC50,[3],0.57
same,hepatocyte CLint at 100 µM,[29],2.77 µL/min/1e6 cells
COc1c(F)cccc1Nc1c(-c2ccncc2OCC(C)(C)OC)[nH]c2c1C(=O)NCC2,Ratio IC50,[3],25.9
same,IC50,[30],397 nM
same,IC50,[31],15.3 nM
same,IC50,[32],11.9 nM
same,IC50,[33],12.8 nM
C=CC(=O)Nc1cc(Nc2nccc(-c3cn(C)c4ccccc34)n2)c(OC)cc1N(C)CCN(C)C [OSIMERTINIB],IC50,[5],350 nM
same,IC50,[6],87 nM
same,IC50,[7],173 nM
same,IC50,[8],576 nM
same,IC50,[24],57 nM
same,IC50,[9],469 nM
same,Ratio IC50,[3],2.02
COc1c(Cl)cccc1Nc1c(-c2ccncc2C#C[C@@]2(C)CCCN2C(=O)/C=C/CN(C)C)[nH]c2c1C(=O)NCC2,IC50,[2],6.22 nM
same,IC50,[4],5.62 nM
same,IC50,[34],16.7 nM
same,IC50,[35],7.7 nM
C#Cc1cccc(Nc2ncnc3cc(OCCOC)c(OCCOC)cc23)c1 [ERLOTINIB],IC50,[5],71 nM
same,IC50,[6],214 nM
same,IC50,[7],1340 nM
same,IC50,[8],3480 nM
same,IC50,[24],2320 nM
same,IC50,[9],2700 nM
same,Ratio IC50,[3],0.05
C=CC(=O)N1CCC(Oc2cc3c(Nc4ccc(Cl)c(Cl)c4F)ncnc3cc2OC)CC1 [POZIOTINIB],IC50,[19],0.7 nM
same,IC50,[20],4.8 nM
same,IC50,[21],2.7 nM
same,IC50,[22],2.2 nM
same,IC50,[36],1 nM
same,Ratio IC50,[37],~40
same,IC50,[38],1.8 nM
same,IC50,[39],0.3 nM
